Measurements reported in ChEMBL document CHEMBL5385936, “Design, synthesis, α-amylase and glucose diffusion inhibition, and molecular docking studies of new indenopyrazolones bearing benzothiazole derivatives” (Bioorg Med Chem Lett, 2024).

Columns and labels:
[1] = In vitro antidiabetic activity measured by appearance of glucose in external solution using dialysis bag and D-glucose incubated for 1 to 27 hrs by 3,5-dinitrosalicylic acid based glucose diffusion inhibition assay; type: functional; settings: time 1-27 hrs
[2] = Inhibition of Aspergillus oryzae alpha-amylase in presence of 1% starch incubated for 10 mins

| SMILES | IC50 [2] [µg/mL] | Activity [1] [µg/mL] |
| --- | --- | --- |
| Cc1cccc2sc(-n3nc(-c4ccc(F)cc4)c4c3-c3ccccc3C4=O)nc12 | 159.95 | 13.2 |
| Cc1cccc2sc(-n3nc(-c4ccc(Br)cc4)c4c3-c3ccccc3C4=O)nc12 | 132.41 | 17.2 |
| Cc1cccc2sc(-n3nc(-c4cccc(Cl)c4)c4c3-c3ccccc3C4=O)nc12 | 171.2 | 2.25 |
| Cc1cccc2sc(-n3nc(-c4ccc(Cl)cc4)c4c3-c3ccccc3C4=O)nc12 | 92.99 | 9.5 |
| Cc1cccc2sc(-n3nc(-c4cccc(Br)c4)c4c3-c3ccccc3C4=O)nc12 | 183.43 | 6.29 |
| O=C1c2ccccc2-c2c1c(-c1cccc(Cl)c1)nn2-c1nc2ccc(F)cc2s1 | 190.98 | 18 |
| C[C@H]1O[C@H](O[C@H]2[C@H](O)[C@@H](O)[C@@H](O[C@H]3[C@H](O)[C@@H](O)C(O)O[C@@H]3CO)O[C@@H]2CO)[C@H](O)[C@@H](O)[C@@H]1N[C@H]1C=C(CO)[C@@H](O)[C@H](O)[C@H]1O (some centres not stated) [ACARBOSE] | 103.6 | 2.76 |
| Cc1cccc2sc(-n3nc(-c4ccccc4)c4c3-c3ccccc3C4=O)nc12 | 167.48 | 6.68 |
| COc1cccc(-c2nn(-c3nc4ccc(F)cc4s3)c3c2C(=O)c2ccccc2-3)c1 | 162.5 | 10.9 |
| COc1cccc(-c2nn(-c3nc4c(C)cccc4s3)c3c2C(=O)c2ccccc2-3)c1 | 200.95 | 10.8 |
| Cc1cccc(-c2nn(-c3nc4ccc(F)cc4s3)c3c2C(=O)c2ccccc2-3)c1 | 95.41 | 13.5 |
| Cc1cccc(-c2nn(-c3nc4c(C)cccc4s3)c3c2C(=O)c2ccccc2-3)c1 | 198.33 | 8.25 |
| Cc1ccc(-c2nn(-c3nc4c(C)cccc4s3)c3c2C(=O)c2ccccc2-3)cc1 | 165.59 | 7.25 |
| COc1ccc(-c2nn(-c3nc4c(C)cccc4s3)c3c2C(=O)c2ccccc2-3)cc1 | 161.92 | 12.7 |

Continued, in another order:

| IC50 [2] [µg/mL] | SMILES | Activity [1] [µg/mL] |
| --- | --- | --- |
| 98.42 | O=C1c2ccccc2-c2c1c(-c1ccccc1)nn2-c1nc2ccc(F)cc2s1 | 2.63 |
| 196.85 | O=C1c2ccccc2-c2c1c(-c1ccc(Br)cc1)nn2-c1nc2ccc(F)cc2s1 | 12.7 |
| 189.69 | O=C1c2ccccc2-c2c1c(-c1ccc(Cl)cc1)nn2-c1nc2ccc(F)cc2s1 | 17.6 |
| 104.74 | COc1ccc(-c2nn(-c3nc4ccc(F)cc4s3)c3c2C(=O)c2ccccc2-3)cc1 | 4.26 |
| 144.106 | O=C1c2ccccc2-c2c1c(-c1ccc(F)cc1)nn2-c1nc2ccc(F)cc2s1 | 11.5 |
| 135.14 | Cc1ccc(-c2nn(-c3nc4ccc(F)cc4s3)c3c2C(=O)c2ccccc2-3)cc1 | 6.8 |
| 192.95 | O=C1c2ccccc2-c2c1c(-c1cccc(Br)c1)nn2-c1nc2ccc(F)cc2s1 | 11.9 |
